Drawing on patent US5162571A, “Phenol derivatives, their production and use” (Takeda Chemical Industries, Ltd., priority 1987, dated 1992), this text covers Bleeding time and inhibition for one compound.

The nature of series [1]: Extension of bleeding time. Type of series: in vivo, rat. To be noted: one hour before. As for the experimental part: Extension of bleeding time
Method: Test compounds were administered orally to rats one hour before the experiments. The rats were anesthetized and the tail was cut at 1.5 mm from the tip. Immediately, the tail was hung down into a physiological saline warmed at 37° C. The time required from initiation to stop of bleeding (bleeding time) was measured.

A further series deals with T1, 5-Lipoxygenase (Rattus norvegicus, UniProt P12527).
T1 construct: RBL-1 cells (rat basophilic leukemia cells); endogenous in cells; host or cells: RBL-1 (rat basophilic leukemia cells)
T1 sequence (P12527 1-673): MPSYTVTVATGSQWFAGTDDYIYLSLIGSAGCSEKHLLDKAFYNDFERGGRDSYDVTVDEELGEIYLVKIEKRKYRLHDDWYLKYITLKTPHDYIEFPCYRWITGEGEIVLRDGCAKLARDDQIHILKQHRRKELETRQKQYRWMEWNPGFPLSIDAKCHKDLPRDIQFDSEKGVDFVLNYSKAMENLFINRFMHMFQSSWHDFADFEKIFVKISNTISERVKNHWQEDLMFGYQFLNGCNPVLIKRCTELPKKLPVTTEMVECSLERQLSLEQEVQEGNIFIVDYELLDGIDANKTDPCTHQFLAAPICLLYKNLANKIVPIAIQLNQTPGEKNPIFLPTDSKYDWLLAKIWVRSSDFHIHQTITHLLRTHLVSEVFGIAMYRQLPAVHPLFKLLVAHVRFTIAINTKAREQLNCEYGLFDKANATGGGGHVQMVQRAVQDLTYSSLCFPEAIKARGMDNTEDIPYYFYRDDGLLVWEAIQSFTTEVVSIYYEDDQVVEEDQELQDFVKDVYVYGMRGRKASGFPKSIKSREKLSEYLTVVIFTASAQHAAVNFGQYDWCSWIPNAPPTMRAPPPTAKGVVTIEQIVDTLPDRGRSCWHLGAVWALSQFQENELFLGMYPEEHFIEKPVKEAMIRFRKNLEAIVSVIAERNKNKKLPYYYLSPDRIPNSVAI
The series is described as follows: 5-Lipoxygenase inhibitory activity (5-HETE production in RBL-1 cells). The format is cell-based. To be noted: read-out: Inhibitory effect on 5-HETE production (%). As for the experimental part: 5-Lipoxygenase inhibitory activity
Method: 10^7 RBL-1 cells (rat basophilic leukemia cells) were suspended in 0.5 ml of MCM (mast cell medium), and test solutions (made up of 0.5 ml of MCM, 50 μg of arachidonic acid, 10 μg of A-23187 (calcium ionophore) and 1 μM, 0.01 μM and 0.001 μM as the final concentration of the phenol compound, respectively) prepared previously were added respectively to the suspension, followed by reaction at 37° C. for 20 minutes. After the conclusion of the reaction, 4 ml of ethanol and 1,4-dimethoxy-2-methyl-3-(3-methoxypropyl)naphthalene as the internal reference drug were added to the reaction solution, and the mixture was shaken thoroughly and allowed to stand at room temperature for 10 minutes. Then, it was centrifuged (2000 r.p.m.) for 10 minutes, and the supernatant fluid was separated and concentrated to dryness under reduced pressure. 0.5 ml of 60% aqueous methanol was added to the concentrate, and 100 μl of the resulting solution was taken and subjected to high-performance liquid chromatography to determine the amount of 5-HETE (5-hydroxy-eicosatetraenoic acid). Determination of 5-HETE was made through measurement of an absorption at 237 nm with a UV absorption monitor.
The 5-HETE production inhibitory effect (IE) was expressed by [formula] wherein a is a peak height or peak area corrected by the peak for the internal reference when the phenol compound is not contained; b is a peak height or peak area corrected by the peak for the internal reference when the phenol compound is contained.

The target of series [2] is T2, Thromboxane A2 (TXA2) receptor (Oryctolagus cuniculus, UniProt Q6WQI8).
T2 construct: contraction by TXA2 mimics U-44069 or U-46619
T2 sequence (Q6WQI8 1-233): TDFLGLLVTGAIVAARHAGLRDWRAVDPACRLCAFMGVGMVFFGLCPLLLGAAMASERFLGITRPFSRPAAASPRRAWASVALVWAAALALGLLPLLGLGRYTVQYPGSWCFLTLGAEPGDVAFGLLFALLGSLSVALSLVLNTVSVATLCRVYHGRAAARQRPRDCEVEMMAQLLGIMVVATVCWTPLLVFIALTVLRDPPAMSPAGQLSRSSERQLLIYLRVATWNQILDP
The series can be described thus: Thromboxane A2 (TXA2) receptor antagonism: inhibitory effect on contraction of rabbit aorta by TXA2-mimics. Conditions: U-44069 (10^-7 M)-induced contraction. The format is cell-based. On the procedure:
Thromboxane A2 (TXA2) receptor antagonism
Inhibitory effect on contraction of rabbit aorta by thromboxan A2 (TXA2)-mimics
Method: A spiral strip of the rabbit aorta (2-3 mm wide, about 3 cm long) was suspended in Krebs-Henseleit solution under the load of 2 g. The Krebs-Henseleit solution was saturated with a mixed gas of 95%O2 -5%CO2 and warmed at 37° C. Inhibition of the contraction of the vascular strip caused by a TXA2 mimic substance U-44069^1) (10^-7 M) or U-46619^2) (3×10 ^-8 M), by pretreatment with Compound No. 13 30 minutes before was studied.
1) U-44069: (5Z, 9α, 11α, 13E, 15S)-15-hydroxy-9,11-(epoxymethano)-prosta-5,13-dienoic acid (manufacturedby The Upjohn Company in U.S.A.)
2) U-46619: (5Z, 9α, 11α, […], 15S)-15-hydroxy-11,9-(epoxymethano)-prosta-5,13-dienoic acid (manufacturedby Cayman Chemical Company)
In Table 5, "*" represents addition of U-46619.

Turning to `Cc1c(C)c(Br)c(C)c(C(CCCCCC(=O)O)c2ccc(F)cc2)c1O` (stereo not shown) [Compound 12, 7-(5-bromo-2-hydroxy-3,4,6-trimethylphenyl)-7-(4-fluorophenyl)heptanoic acid], the Bleeding time in series [1] (10 mg/kg oral, control 173 ± 23, * p < 0.05) stood at 272 ± 52 s; in series [1] (30 mg/kg oral, control 164 ± 27, ** p < 0.01), 258 ± 14 s. Moreover, the inhibition at 10 µM on 5-Lipoxygenase (10^-5 M) is 96%; in series [2] (10^-5 M) it was 100%. Moreover, the figures for the inhibition at 1 µM (at 5-Lipoxygenase (10^-6 M); in series [2] (10^-6 M)) were 22% and 79%, respectively. In addition, in series [2] (10^-7 M), the inhibition at 0.1 µM amounted to 12%.
